Results reported in publication PMC2363502.
Where two headings read alike, the source gives them in different places.

Tests used:
[1] = phase I pharmacokinetics in plasma and urine; type: in vivo, human
Description: (§1) Preclinical testing confirmed promising antiproliferative activity. […] Physical examination was performed weekly. […] N-Acetyl-SPERMINE SSAT SSAT […] Analysis was descriptive only. […] Patient characteristics are described in Table 1. […] Three patients completed the full six cycles of treatment. Of these, two received the combination 5FU/SAM486A from cycle 3 onwards. Five patients recorded a best response of stable disease. Of these, three received the combination 5FU/SAM486A from cycle 3 onwards (see below).

[2] = tested on: polyamine pools and SAMDC activity in leukocytes; experiment: polyamines and SAMDC activity in peripheral blood leukocytes; type: in vivo, human
Description: as §1

[3] = tested on: S-adenosylmethionine decarboxylase (SAMDC); conditions: cited from earlier work
[4] = tested on: variety of different tumour cell lines; parameters: method as in H Mett, unpublished data; conditions: including multi-drug-resistant and highly metastatic variants; ref H Mett, unpublished data; cited from earlier work
tumour = tested on: tumour; parameters: method as in Gschaidmeier et al, 1999, O'Reilly et al, 2000; conditions: in vitro and in vivo; ref Gschaidmeier et al, 1999, O'Reilly et al, 2000; cited from earlier work
L-1210 leukaemia = tested on: L-1210 leukaemia; parameters: method as in Dorhout et al, 1995; conditions: treated L-1210 leukaemia-bearing animals; ref Dorhout et al, 1995; cited from earlier work
[5] = parameters: method as in unpublished; conditions: rat, basis of starting dose; ref unpublished; cited from earlier work
[6] = tested on: human HCT-116 tumour cell line; parameters: method as in data on file; conditions: subcutaneous HCT-116 in nude mice; ref data on file; cited from earlier work
[7] = short-term single or repeat bolus injections of high doses; preclinical background, ref not given; cited from earlier work
[8] = phase I safety and tolerability, 120 h continuous infusion every 4 weeks
[9] = Table 3, 6 mg m-2 cycle-1, 4 patients studied
[10] = Table 3, 12 mg m-2 cycle-1, 3 patients studied
[11] = Table 3, 24 mg m-2 cycle-1, 3 patients studied
[12] = Table 3, 400 mg m-2 cycle-1, 6 patients studied
[13] = Table 3, 550 mg m-2 cycle-1, 6 patients studied
[14] = Table 3, 700 mg m-2 cycle-1, 5 patients studied
[15] = Table 3, all dose levels, 39 patients
[16] = Table 3, all dose levels, 39 patients, incl. combination
[17] = Table 4, after infusion (day 6-28), 550 mg m-2 cycle-1, 6 patients studied

N=C(N)c1cccc2c1CCC2=NN=C(N)N [SAM486A]
mean terminal elimination t1/2 ([1]; all patients included in the analysis, standard deviation 23.1 h): 48.6 h | fraction of total drug administered excreted in urine ([1]; day 1): Approximately 3% | plasma SAM486A concentrations ([1]; first 10 patients at lowest dose levels, significant portions of sampling interval): below the limit of quantitation | terminal half-life (approximate) ([1]; plasma, patients): approximately 2 days | evaluable patients with marginal trend to increased SAMDC activity ([2]; 400 mg m-2 cycle-1 and above): eight of 13 | evaluable patients with trend to increased putrescine ([2]; 400 mg m-2 cycle-1 and above): 10 of the 11 | evaluable patients with trend to increased putrescine ([2]; 3-200 mg m-2 cycle-1): six of the 12 | evaluable patients with marginal trend to increased SAMDC activity ([2]; doses up to 200 mg m-2 cycle-1): nine of 18 | expected concomitant decrease in spermidine and spermine ([2]; peripheral blood leukocytes): could not be detected | fold more active than MGBG ([3]; SAMDC inhibition in vitro, ref Regenass et al, 1994): approximately 200 fold | IC50 ([3]; as quoted in results and discussion, read-out: IC50 required in in vitro experiments for inhibition of SAMDC): 4.7 nM | IC50 for inhibition of SAMDC as plasma concentration ([3]; as quoted in results): 1.1 ng/mL | IC50 ([3]; in vitro, ref Regenass et al, 1994, read-out: IC50 for SAMDC): 4.7 nM | growth inhibitory IC50 [4]: micromolar range | effect of combination with 5FU and with cisplatin (tumour): Additive to synergistic effects | SAMDC activity and putrescine pools in tumours (L-1210 leukaemia): decreased SAMDC activity and elevated putrescine pools | no-adverse-effect level [5]: 0.06 mg/kg/day | drug level in tumours compared to plasma elimination profile [6]: marked accumulation of the drug was seen in tumours | acute toxicity findings [7]: acute cardiovascular and respiratory | patients with grade 4 granulocytopenia ([8]; 550 mg m-2 cycle-1, six patients): three | maximum tolerated dose (MTD) ([8]; 120 h continuous infusion every 4 weeks): 400 mg m-2 cycle-1 | correlation coefficient AUC vs granulocytopenia ([8]; Figure 4): 0.6931 | correlation coefficient dose vs granulocytopenia ([8]; Figure 4): 0.5814 | Haemoglobin grade 1-4, no. of patients ([8]; Table 3, 3 mg m-2 cycle-1, 3 patients studied): 2 patients | Haemoglobin grade 1-4, no. of patients [8, 9]: 2 patients | Thrombocytes (platelets) grade 1-4, no. of patients [8, 9]: 1 patients | Thrombocytes grade 3-4, no. of patients [8, 9]: 1 patients | Haemoglobin grade 1-4, no. of patients [8, 10]: 2 patients | Haemoglobin grade 3-4, no. of patients [8, 10]: 1 patients | Haemoglobin grade 1-4, no. of patients [8, 11]: 3 patients | Haemoglobin grade 3-4, no. of patients [8, 11]: 1 patients | Haemoglobin grade 1-4, no. of patients ([8]; Table 3, 48 mg m-2 cycle-1, 4 patients studied): 2 patients | Haemoglobin grade 1-4, no. of patients ([8]; Table 3, 96 mg m-2 cycle-1, 3 patients studied): 1 patients | Leukocytes (WBC) grade 1-4, no. of patients ([8]; Table 3, 200 mg m-2 cycle-1, 2 patients studied): 1 patients | Granulocytes (AGC) grade 1-4, no. of patients [8, 12]: 2 patients | Granulocytes (AGC) grade 3-4, no. of patients [8, 12]: 1 patients | Haemoglobin grade 1-4, no. of patients [8, 12]: 3 patients | Leukocytes (WBC) grade 1-4, no. of patients [8, 12]: 2 patients | Granulocytes (AGC) grade 1-4, no. of patients [8, 13]: 4 patients | Granulocytes (AGC) grade 3-4, no. of patients [8, 13]: 4 patients | Haemoglobin grade 1-4, no. of patients [8, 13]: 4 patients | Haemoglobin grade 3-4, no. of patients [8, 13]: 1 patients | Leukocytes (WBC) grade 1-4, no. of patients [8, 13]: 5 patients | Leukocytes (WBC) grade 3-4, no. of patients [8, 13]: 3 patients | Thrombocytes (platelets) grade 1-4, no. of patients [8, 13]: 1 patients | Thrombocytes grade 3-4, no. of patients [8, 13]: 1 patients | Granulocytes (AGC) grade 1-4, no. of patients [8, 14]: 4 patients | Granulocytes (AGC) grade 3-4, no. of patients [8, 14]: 3 patients | Haemoglobin grade 1-4, no. of patients [8, 14]: 2 patients | Haemoglobin grade 3-4, no. of patients [8, 14]: 1 patients | Leukocytes (WBC) grade 1-4, no. of patients [8, 14]: 4 patients | Leukocytes (WBC) grade 3-4, no. of patients [8, 14]: 3 patients | Thrombocytes (platelets) grade 1-4, no. of patients [8, 14]: 2 patients | Haemoglobin grade 1-4, Total (%) [8, 15]: 21 (54) patients (%) | Haemoglobin grade 3-4, Total (%) [8, 15]: 4 (10) patients (%) | Thrombocytes grade 3-4, Total (%) [8, 15]: 2 (5) patients (%) | Granulocytes (AGC) grade 1-4, Total (%) [8, 16]: 12 (31) patients (%) | Granulocytes (AGC) grade 3-4, Total (%) [8, 16]: 9 (23) patients (%) | Leukocytes (WBC) grade 1-4, Total (%) [8, 16]: 14 (36) patients (%) | Leukocytes (WBC) grade 3-4, Total (%) [8, 16]: 7 (18) patients (%) | Fatigue grade 3-4, no. of patients ([8]; Table 4, after infusion (day 6-28), 400 mg m-2 cycle-1, 6 patients studied): 1 patients | Anorexia grade 3-4, no. of patients [8, 17]: 1 patients | Atrial fibrillation grade 3-4, no. of patients [8, 17]: 1 patients | Condition aggravated grade 3-4, no. of patients [8, 17]: 1 patients | Dementia grade 3-4, no. of patients ([8]; Table 4, after infusion (day 6-28), 700 mg m-2 cycle-1, 5 patients studied): 1 patients
